The source of these data is BindingDB's records for doi:10.1016/j.bmcl.2004.10.085 (Bristol-Myers Squibb Pharmaceutical Research Institute, 2004).

pIC50: −log10 of the molar value.

This test addresses T1, Androgen receptor (Homo sapiens, UniProt P10275).
T1 sequence (P10275 whole entry): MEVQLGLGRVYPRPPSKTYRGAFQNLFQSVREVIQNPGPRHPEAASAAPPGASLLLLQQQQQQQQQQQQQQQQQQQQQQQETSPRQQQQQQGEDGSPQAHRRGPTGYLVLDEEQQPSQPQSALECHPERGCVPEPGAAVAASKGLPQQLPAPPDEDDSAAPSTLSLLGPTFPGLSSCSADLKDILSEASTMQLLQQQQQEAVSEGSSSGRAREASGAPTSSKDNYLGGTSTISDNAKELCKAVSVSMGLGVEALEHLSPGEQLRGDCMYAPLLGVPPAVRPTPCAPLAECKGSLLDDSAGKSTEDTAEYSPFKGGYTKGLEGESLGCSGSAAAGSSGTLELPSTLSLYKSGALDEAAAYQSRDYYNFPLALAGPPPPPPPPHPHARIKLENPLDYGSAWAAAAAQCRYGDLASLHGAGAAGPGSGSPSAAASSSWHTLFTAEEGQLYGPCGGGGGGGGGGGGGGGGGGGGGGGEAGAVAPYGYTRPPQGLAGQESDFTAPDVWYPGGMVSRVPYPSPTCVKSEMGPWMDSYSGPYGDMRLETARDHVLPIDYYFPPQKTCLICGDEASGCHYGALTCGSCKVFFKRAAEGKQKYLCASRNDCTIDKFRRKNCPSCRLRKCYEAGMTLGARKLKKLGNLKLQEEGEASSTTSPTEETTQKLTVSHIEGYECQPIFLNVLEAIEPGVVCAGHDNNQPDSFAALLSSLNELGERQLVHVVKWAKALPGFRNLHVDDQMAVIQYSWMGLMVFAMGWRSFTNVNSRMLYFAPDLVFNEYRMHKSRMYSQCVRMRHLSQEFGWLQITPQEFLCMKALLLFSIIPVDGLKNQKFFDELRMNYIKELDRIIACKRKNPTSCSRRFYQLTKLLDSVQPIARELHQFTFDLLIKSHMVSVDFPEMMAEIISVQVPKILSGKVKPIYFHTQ
The test is described as follows: Inhibition of androgen dependent human prostate cancer cell […] proliferation.

Take `CN1C(=O)C2C=CC1c1c2c(O)n(-c2ccc([N+](=O)[O-])c3ccccc23)c1O` [(2R,6R)-8-Methyl-4-(4-nitro-naphthalen-1-yl)-4,8-diaza-tricyclo[5.2.2.0*2,6*]undec-10-ene-3,5,9-trione]: the pIC50 (commonly the IC50 on a negative log10 scale, so that one unit is a factor of ten) is 5.07.
For `Oc1c2c(c(O)n1-c1ccc(Cl)c(Cl)c1)C1C=CC2C1` [(2R,6S)-4-(3,4-Dichloro-phenyl)-4-aza-tricyclo[5.2.1.0*2,6*]dec-8-ene-3,5-dione], the pIC50 was 6.74.
The compound `Oc1c2c(c(O)n1-c1cccc(C(F)(F)F)c1)C1C=CC2CC1` [(2R,6S)-4-(3-Trifluoromethyl-phenyl)-4-aza-tricyclo[5.2.2.0*2,6*]undec-8-ene-3,5-dione] had a pIC50 of 9.40.
Under `Oc1c2c(c(O)n1-c1cccc(C(F)(F)F)c1)C1C=CC2[C@H]2C[C@@H]12` [(2R,6S,8S,10R)-4-[3-(trifluoromethyl)phenyl]-4-azatetracyclo[5.3.2.0^{2,6}.0^{8,10}]dodec-11-ene-3,5-dione] stands 6.83; under `Oc1c2c(c(O)n1-c1cccc(C(F)(F)F)c1)C1CCCC2CC1` [(2S,6R)-4-(3-Trifluoromethyl-phenyl)-4-aza-tricyclo[5.3.2.0*2,6*]dodecane-3,5-dione], 6.75.
